{
  "source": "patent US6387406B1",
  "about": "“Copolymer compositions for oral delivery” (Supratek Pharma Inc., priority 1992, dated 2002)",
  "key": {"[1]": {"test_system": "SKVLB cell line (SK-resistant cells)", "experiment": "XTT cytotoxicity on SK-resistant cells", "assay_type": "cell-based, human", "details": "for IC50: Homo sapiens"}, "DBA/2 mice [2]": {"test_system": "DBA/2 mice"}, "[3]": {"test_system": "neuroleptic effect as monitored behaviorally", "experiment": "Minimum neuroleptic dose (MND)", "assay_type": "in vivo", "details": "control preparation", "experimental": "The minimum neuroleptic dose (MND) was determined for each preparation. The minimum neuroleptic dose is defined as the minimum dose that caused a neuroleptic effect as monitored behaviorally. See, Kabanov et al., FEBS Lett. 258: 343-345, 1989. The MND for the copolymer-containing preparation was 0.02 mg/kg, while that of the control preparation was 2 mg/kg. The ratio of LD95/MND was 50 for the copolymer preparation and 5 for the control preparation."}, "DBA/2 mice [4]": {"test_system": "DBA/2 mice", "details": "±S.D."}, "[5]": {"test_system": "SKOV3 line of transformed cells (SK cells)", "experiment": "Cytotoxicity on SK cells", "assay_type": "cell-based, human", "details": "free drug"}, "glucose level in plasma": {"test_system": "glucose level in plasma", "experiment": "Insulin-induced hypoglycemia, s.c. or p.o.", "assay_type": "in vivo, Balb/c mice", "experimental": "Hypoglycemia induced by high doses of insulin in mice was used as biological response criteria. The drug activity was evaluated by analyzing the glucose level in plasma versus time following drug administration. Isotonic solutions of free insulin (Ins) or insulin formulated with POE-POP block copolymer (“SP1-Ins”) were given to Balb/c mice at the same doses either s.c. or p.o.\nFemale six-week-old Balb/c mice (six animals per time point) were administered s.c. or p.o. with sterile 100 μl per 20 g of body weight (5 ml/kg) of Insulin or SP1-Insulin solutions, and the same volumes of isotonic solution were given to the control group of animals. Both Insulin and SP1-Insulin injections contained 0.02 mg/ml of insulin with activity of 27.3 μ/mg.\nThe animals were sacrificed after various time intervals (0.5-6 hr; post-administration), plasma samples were collected, and glucose levels were analyzed by standard glucosoxidase-peroxidase method. The statistical significance was analyzed by the multiple range text of Duncan-Kramer."}, "BALB/c male mice": {"test_system": "BALB/c male mice", "details": "mouse, in vivo, ip"}, "[6]": {"details": "control preparation, solution in RPMI 1640"}, "[7]": {"details": "Example 10: 10% of LD95 i.p., stearoylated insulin-targeted micelles vs free drug"}},
  "note": "Like-named read-outs stand apart in the source and are kept apart here.",
  "data": [
    {"compound": "COc1cccc2c1C(=O)c1c(O)c3c(c(O)c1C2=O)C[C@@](O)(C(=O)CO)C[C@@H]3O[C@H]1C[C@H](N)[C@H](O)[C@H](C)O1", "note": "[Free doxorubicin, doxorubicin]", "values": [
      {"measurement": "IC50", "setting": "[1]", "value": 60, "unit": "µg/mL"}
    ]},
    {"compound": "CCN1CCCC1CNC(=O)c1cc(S(N)(=O)=O)ccc1OC", "note": "(stereo not shown) [Sulpiride]", "values": [
      {"measurement": "LD95", "setting": "DBA/2 mice [2]; [6]", "value": 100, "unit": "mg/kg body weight"}
    ]},
    {"compound": "CN1CCN(CCCN2c3ccccc3Sc3ccc(C(F)(F)F)cc32)CC1", "note": "[Trifluorperazine]", "values": [
      {"measurement": "LD95", "setting": "DBA/2 mice [2]; [6]", "value": 10, "unit": "mg/kg body weight"},
      {"measurement": "minimum neuroleptic dose (MND)", "setting": "[3]", "value": 2, "unit": "mg/kg"},
      {"measurement": "ratio of LD95/MND", "setting": "[3]", "value": 5}
    ]},
    {"compound": "O=C(CCCN1CCC(O)(c2ccc(Cl)cc2)CC1)c1ccc(F)cc1", "note": "[haloperidol]", "values": [
      {"measurement": "LD95", "setting": "DBA/2 mice [2]; i.p., without the Pluronic vehicle", "value": 75, "unit": "mg/kg"},
      {"measurement": "Horizontal mobility", "setting": "DBA/2 mice [4]; Example 7: 10% of LD95 i.p., antibody-targeted micelles vs free drug", "value": "204.6 ± 24", "unit": "%"},
      {"measurement": "Grooming", "setting": "DBA/2 mice [4]; [7]", "value": "1656.4 ± 6.5", "unit": "%"},
      {"measurement": "Horizontal mobility", "setting": "DBA/2 mice [4]; [7]", "value": "180.1 ± 26", "unit": "%"}
    ]},
    {"compound": "CN(Cc1cnc2nc(N)nc(N)c2n1)c1ccc(C(=O)N[C@@H](CCC(=O)O)C(=O)O)cc1", "note": "[methotrexate]", "values": [
      {"measurement": "IC50", "setting": "[1]; free drug, read-out: IC50 against SK-resistant cells", "value": 1.34, "unit": "µg/mL"}
    ]},
    {"compound": "CO[C@@]12[C@H](COC(N)=O)C3=C(C(=O)C(C)=C(N)C3=O)N1C[C@@H]1N[C@@H]12", "note": "[mitomycin C]", "values": [
      {"measurement": "IC50 against SK cells", "setting": "[5]", "value": 0.320, "unit": "µg/mL"},
      {"measurement": "IC50 against SK-resistant cells", "setting": "[1]; free drug", "value": 1.120, "unit": "µg/mL"}
    ]},
    {"compound": "Insulin", "values": [
      {"measurement": "changes in plasma glucose level", "setting": "glucose level in plasma; p.o., in words", "value": "only minor changes"},
      {"measurement": "time to return to the normal glucose level", "setting": "glucose level in plasma; s.c.", "value": "about 6 hours"},
      {"measurement": "glucose level in plasma", "setting": "glucose level in plasma; s.c., 3 hours after administration", "value": "about 15 % of the normal level"}
    ]},
    {"compound": "Pluronic P85", "values": [
      {"measurement": "MTD", "setting": "BALB/c male mice", "value": 200, "unit": "mg/kg"}
    ]}
  ]
}
